Laboratory results published in PMC11121183, “Functional Characterization of a Spectrum of Genetic Variants in a Family with Succinic Semialdehyde Dehydrogenase Deficiency” (International Journal of Molecular Sciences, 2024).
Where a chain is given by its changes, count along the chain named. Names may count otherwise. One block for each molecule: values may come before it.

Assays:
[1] = biological target: T1, Succinic semialdehyde dehydrogenase (SSADH) (Homo sapiens, UniProt P51649, H180Y); test: purified enzyme turnover, NADH formation at […] nm ([…] SSA, […] NAD+); assay type: biochemical
T1 construct: gene ALDH5A1; recombinant SSADH, amino acids 48–535, N-terminal His-tag
T1 sequence (P51649 48-535 H180Y): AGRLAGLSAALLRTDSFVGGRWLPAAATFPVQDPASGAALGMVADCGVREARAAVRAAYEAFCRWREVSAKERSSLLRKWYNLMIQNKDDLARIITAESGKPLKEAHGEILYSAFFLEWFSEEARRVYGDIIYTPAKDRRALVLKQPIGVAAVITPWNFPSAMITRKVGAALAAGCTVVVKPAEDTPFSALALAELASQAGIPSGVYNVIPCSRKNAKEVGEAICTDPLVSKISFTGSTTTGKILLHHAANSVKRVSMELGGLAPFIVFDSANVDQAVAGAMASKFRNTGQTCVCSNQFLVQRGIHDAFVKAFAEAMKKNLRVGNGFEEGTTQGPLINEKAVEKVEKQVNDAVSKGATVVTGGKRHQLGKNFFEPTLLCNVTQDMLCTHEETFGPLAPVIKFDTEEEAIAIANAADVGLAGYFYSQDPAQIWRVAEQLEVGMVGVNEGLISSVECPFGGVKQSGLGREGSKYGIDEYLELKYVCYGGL

[2] = biological target: T2, Succinic semialdehyde dehydrogenase (SSADH) (Homo sapiens, UniProt P51649); test: as above; assay type: biochemical
T2 construct: gene ALDH5A1; recombinant SSADH, amino acids 48–535, N-terminal His-tag
T2 sequence (P51649 48-535): T1 sequence (P51649 48-535 H180Y) with Y133H

[3] = biological target: T3, Succinic semialdehyde dehydrogenase (SSADH) (Homo sapiens, UniProt P51649, H180Y/N255D); test: intrinsic fluorescence titration (excitation […] nm); assay type: binding
T3 construct: gene ALDH5A1; recombinant SSADH, amino acids 48–535, N-terminal His-tag
T3 sequence (P51649 48-535 H180Y/N255D): T1 sequence (P51649 48-535 H180Y) with N208D

[4] = biological target: T1, Succinic semialdehyde dehydrogenase (SSADH); test: intrinsic fluorescence titration (excitation […] nm); CD and Tm shift of about […] °C in support; assay type: binding
[5] = biological target: T2, Succinic semialdehyde dehydrogenase (SSADH); test: as above; assay type: binding
[6] = biological target: the molecule itself; test: SEC; Superdex 200 (10/300), 100 mM potassium phosphate, 150 mM NaCl, pH 8; 0.1 to 5 mg/mL protein loaded; 280 nm signal

- purified enzyme turnover, NADH formation at 340 nm (10 μM SSA, 500 μM NAD+) [1]: 54 s⁻¹
- purified enzyme turnover, NADH formation at 340 nm (10 μM SSA, 500 μM NAD+) [2]: 65 s⁻¹
Molecule: O=CCCC(=O)O [Succinic semialdehyde]

- Kd [3]: 33 ± 13 µM
- Kd [4]: 3 ± 1 µM
- Kd [5]: 2.8 ± 0.3 µM
Molecule: NC(=O)c1ccc[n+]([C@@H]2O[C@H](COP(=O)([O-])OP(=O)(O)OC[C@H]3O[C@@H](n4cnc5c(N)ncnc54)[C@H](O)[C@@H]3O)[C@@H](O)[C@H]2O)c1 [NAD+]

Further lines, the molecule ahead of its results:

B1: Succinic semialdehyde dehydrogenase (SSADH), wildtype, recombinant (amino acids 48-535) (enzyme, human, UniProt P51649-1 48-535, looked up)
chain: T1 sequence (P51649 48-535 H180Y) with Y133H
notes: No thrombin cleavage of the His-tag is described; also called WT SSADH; WT; source: E. coli BL21, purified (HisTrap, single step)
- stoichiometry N [6]: 4

B2: Succinic semialdehyde dehydrogenase (SSADH) His180Tyr variant, recombinant (amino acids 48-535) (enzyme, human, UniProt P51649-1 48-535, looked up)
chain: T1 sequence (P51649 48-535 H180Y)
notes: No thrombin cleavage of the His-tag is described; also called H180Y; rs2760118 variant; source: E. coli BL21, purified (HisTrap, single step)
- stoichiometry N [6]: 4
